{"source": "paper PMC5855594", "about": "“Poly-N-Acetyllactosamine Neo-Glycoproteins as Nanomolar Ligands of Human Galectin-3: Binding Kinetics and Modeling” (International Journal of Molecular Sciences, 2018)", "key": {"human galectin-3 (Gal-3) [1]": {"molecular_target": "T1, human galectin-3 (Gal-3) (Homo sapiens, UniProt P17931)", "T1 construct": "made in house; host or cells: E. coli Rosetta (DE3) pLysS", "T1 sequence (P17931 whole entry)": "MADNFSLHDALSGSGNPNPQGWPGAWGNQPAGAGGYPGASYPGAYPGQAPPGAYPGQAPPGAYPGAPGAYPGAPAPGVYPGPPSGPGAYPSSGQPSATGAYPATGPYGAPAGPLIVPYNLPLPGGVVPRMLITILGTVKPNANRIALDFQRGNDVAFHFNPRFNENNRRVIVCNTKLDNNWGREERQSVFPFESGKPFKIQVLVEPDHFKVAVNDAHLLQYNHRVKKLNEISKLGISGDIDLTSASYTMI", "test": "Competitive ELISA: inhibition of His-tagged Gal-3 binding to immobilized asialofetuin (ASF)", "conditions": "for increase of inhibitory potency compared to lactose (times): competitive ELISA; for IC50: read-out: IC50 Glycan", "procedure": "To assess the inhibitory potential of glycans 1–8 and the respective neo-glycoproteins 9–16 towards Gal-3, their capacity to inhibit the binding of Gal-3 to immobilized asialofetuin (ASF) was determined by competitive ELISA inhibition analyses (Figure 2b). ASF is a multivalent glycoprotein presenting three triantennary N-glycans terminated with LacNAc, which is reported to interact with Gal-3. Here, Gal-3 was incubated with increasing concentrations of the glycans or neo-glycoproteins as competing ligands and the inhibition of Gal-3 binding to immobilized ASF was quantified by colorimetric immunodetection using anti-His antibody conjugated to HRP. […] The respective inhibition constants (IC50) were calculated from the non-linear regression of the sigmoidal inhibition curves and they are listed in Table 1.\nIn the competitive ELISA design, the F16 Maxisorp NUNC-Immuno Modules (Thermo Scientific, Roskilde, Denmark) were coated overnight with ASF (Sigma Aldrich, Steinheim, Germany; 0.1 µM in PBS, 50 µL, 5 pmol per well) and blocked with BSA (2% w/v) diluted in PBS (1 h, room temperature). […] Detection of bound Gal-3 and data analysis were performed as described above."}, "Gal-3-AVI [2]": {"molecular_target": "T2, Gal-3-AVI (Homo sapiens, UniProt P17931)", "T2 construct": "made in house; host or cells: E. coli BL21 (λDE3), co-expressed with BirA", "T2 sequence (P17931 whole entry)": "as above", "test": "Competitive ELISA with Gal-3-AVI construct", "format": "binding", "conditions": "read-out: IC50 glycan, competitive ELISA"}, "human galectin-3 (Gal-3) [3]": {"molecular_target": "T1, human galectin-3 (Gal-3)", "conditions": "monovalent glycan; inhibition of Gal-3 binding to immobilized ASF; cited from earlier work"}, "human galectin-3 (Gal-3) [4]": {"molecular_target": "T1, human galectin-3 (Gal-3)", "test": "Direct ELISA: binding of soluble His-tagged Gal-3 to immobilized neo-glycoproteins or ASF", "description": "To determine the binding affinities between Gal-3 and neo-glycoproteins 9–16, the binding of soluble Gal-3 to the neo-glycoproteins immobilized in microplate wells was quantified by colorimetric immunodetection using anti-His antibody conjugated to horseradish peroxidase (HRP) (Figure 2a). Gal-3 bound neo-glycoproteins in a concentration-dependent manner and the interaction was exclusively conferred by glycan moieties since no binding of Gal-3 to the glycan-free BSA was detected. Apparent dissociation constants (Kd) of the Gal-3/neo-glycoprotein complexes were calculated from a non-linear regression of binding curves.\nThe affinity of Gal-3 for neo-glycoproteins 9–16 was determined using ELISA as reported previously. For the immobilization of the respective neo-glycoproteins or non-modified BSA (negative control), we used F16 Maxisorp NUNC-Immuno Modules (Thermo Scientific, Roskilde, Denmark). Per well, an amount of 5 pmol was incubated overnight at a working concentration of 0.1 µM (PBS). Then the wells were blocked with bovine serum albumin (2% w/v) diluted in PBS (1 h, room temperature). […] The binding signal of bound galectin was measured with a spectrophotometer (Spectra Max Plus, Molecular Devices, Sunnyvale, CA, USA) at an optical density of 450 nm. Obtained data were analyzed using SigmaPlot 10 software (Systat Software GmbH, Erkrath, Germany)."}, "Gal-3-AVI [5]": {"molecular_target": "T2, Gal-3-AVI", "test": "SPR with biotinylated Gal-3-AVI captured on neutravidin chip, neo-glycoproteins as analytes", "format": "binding", "procedure": "For SPR analysis, the biotinylated Gal-3-AVI was captured on a neutravidin-coated sensor chip, and the binding of serially diluted neo-glycoproteins 9–16 to immobilized Gal-3-AVI was analyzed. Three coupling concentrations of Gal-3-AVI were tested, so that the effect of mass transfer and the non-specific binding were minimized. As a result, the coupling level of 250 relative units (RU) along with the flow rate of 30 µL/min gave the optimum conditions and these parameters were used for the subsequent experiments.\nFigure 4 SPR kinetic binding analysis of the interactions between neo-glycoproteins 9–16 and immobilized Gal-3-AVI. The neo-glycoproteins at indicated concentrations were injected in parallel over the neutravidin-coated sensor chip coated with the biotinylated Gal-3-AVI at a flow rate of 30 μL/min. The kinetic data were globally fitted by using a 1:1 Langmuir binding model. The fitted curves are superimposed as thin black lines on top of the sensograms. BSA, bovine serum albumin; rel., relative.\nSPR measurements were performed at 25 °C using a set of sensor chips (GLC, NLC, HTE) mounted on a ProteOn XPR36 Protein Interaction Array System (Bio-Rad, Hercules, CA, USA ) as described previously. Briefly, Gal-3-AVI protein was diluted to a final concentration of 5 µg·mL^−1 in PBS and captured on a neutravidin-coated NLC sensor chip (Bio-Rad) at a flow rate of 30 µL·min^−1. Neo-glycoproteins 9–16, used here as analytes, were serially diluted in the running buffer (PBS supplemented with 0.005% Tween 20), and injected in parallel over the immobilized Gal-3-AVI at a flow rate of 30 µL·min^−1. The Gal-3-AVI surface was regenerated by a washing step with 50 mM HCl for 60 s. For the reversed experimental setup, the neo-glycoproteins 9–16 were immobilized on the GLC sensor chip by amine coupling chemistry and serial dilutions of Gal-3 were injected over the sensor surface. […] The equilibrium dissociation constant, KD, was determined as a ratio between the dissociation and association rate constants: KD=kd/ka"}, "Gal-3-AVI [6]": {"molecular_target": "T2, Gal-3-AVI", "test": "Direct ELISA with Gal-3-AVI construct", "format": "binding", "conditions": "read-out: Kd app, direct ELISA", "description": "To overcome the difficulties with Gal-3 immobilization, we prepared a biotinylated version of Gal-3 through in vivo biotinylation of an AviTag peptide that was genetically fused to the N-terminus of Gal-3 (Gal-3-AVI) (Figure 3). The AviTag is a specific 15-amino acid peptide sequence ([…]) that directs a highly targeted enzymatic conjugation of a single biotin molecule to the specific lysine (K) residue within the AviTag sequence using biotin ligase (BirA). In contrast to chemical biotinylation, which usually generates heterogeneous products with impaired function, the co-translational biotinylation of the AviTag peptide is site specific and provides a highly homogeneous protein preparation. Moreover, the N-terminal localization of the AviTag peptide provides a favorable orientation of Gal-3-AVI on a streptavidin-coated surface, leaving the C-terminal carbohydrate-binding domain of Gal-3 freely accessible for binding interactions.\nTable S1. Comparison of binding affinities of His6-tag Gal-3 and Gal-3-AVI in ELISA assays Kd app [µM], direct ELISA IC50 glycan [µM], competitive ELISA […]\nFigure S7. SPR kinetic binding analysis of the interactions between asialofetuin (ASF) and immobilized Gal-3-AVI. ASF was injected in parallel over the neutravidin-coated sensor chip coated with the biotinylated Gal-3-AVI at a flow rate of 30 µl/min. […]"}, "[7]": {"conditions": "immobilized Gal-3-AVI, 1:1 Langmuir model, 25 °C"}}, "note": "Where two headings read alike, the source gives them in different places."}
{"compound": "CC(=O)N[C@@H]1[C@@H](O)[C@H](O[C@@H]2O[C@H](CO)[C@H](O)[C@H](O)[C@H]2NC(C)=O)[C@@H](CO)O[C@H]1NC(=S)NCCNC(=O)OC(C)(C)C", "note": "[glycan 1, LacdiNAc]", "values": [{"measurement": "increase of inhibitory potency compared to lactose (times)", "setting": "human galectin-3 (Gal-3) [1]", "value": "up to 4"}, {"measurement": "IC50", "setting": "human galectin-3 (Gal-3) [1]", "value": "42 ± 2", "unit": "µM"}, {"measurement": "IC50", "setting": "Gal-3-AVI [2]", "value": "43 ± 4", "unit": "µM"}]}
{"compound": "CC(=O)N[C@@H]1[C@@H](O)[C@H](O[C@@H]2O[C@H](CO)[C@H](O)[C@H](O)[C@H]2O)[C@@H](CO)O[C@H]1NC(=S)NCCNC(=O)OC(C)(C)C", "note": "[glycan 2]", "values": [{"measurement": "increase of inhibitory potency compared to lactose (times)", "setting": "human galectin-3 (Gal-3) [1]", "value": "up to 4"}, {"measurement": "IC50", "setting": "human galectin-3 (Gal-3) [1]", "value": "36 ± 1", "unit": "µM"}]}
{"compound": "CC(=O)N[C@@H]1[C@@H](O)[C@H](O[C@@H]2O[C@H](CO)[C@H](O)[C@H](O[C@@H]3O[C@H](CO)[C@@H](O[C@@H]4O[C@H](CO)[C@H](O)[C@H](O)[C@H]4NC(C)=O)[C@H](O)[C@H]3NC(C)=O)[C@H]2O)[C@@H](CO)O[C@H]1NC(=S)NCCNC(=O)OC(C)(C)C", "note": "[glycan 3, LacdiNAc-LacNAc]", "values": [{"measurement": "IC50", "setting": "human galectin-3 (Gal-3) [3]", "value": "7 ± 1", "unit": "µM"}]}
{"compound": "CC(=O)N[C@@H]1[C@@H](O)[C@H](O[C@@H]2O[C@H](CO)[C@H](O)[C@H](O[C@@H]3O[C@H](CO)[C@@H](O[C@@H]4O[C@H](CO)[C@H](O)[C@H](O)[C@H]4O)[C@H](O)[C@H]3NC(C)=O)[C@H]2O)[C@@H](CO)O[C@H]1NC(=S)NCCNC(=O)OC(C)(C)C", "note": "[glycan 4, LacNAc-LacNAc]", "values": [{"measurement": "IC50", "setting": "human galectin-3 (Gal-3) [3]", "value": "13 ± 3", "unit": "µM"}]}
{"compound": "CC(=O)N[C@@H]1[C@@H](O)[C@H](O[C@@H]2O[C@H](CO)[C@H](O)[C@H](O[C@@H]3O[C@H](CO)[C@@H](O[C@@H]4O[C@H](CO)[C@H](O)[C@H](O[C@@H]5O[C@H](CO)[C@@H](O[C@@H]6O[C@H](CO)[C@H](O)[C@H](O)[C@H]6NC(C)=O)[C@H](O)[C@H]5NC(C)=O)[C@H]4O)[C@H](O)[C@H]3NC(C)=O)[C@H]2O)[C@@H](CO)O[C@H]1NC(=S)NCCNC(=O)OC(C)(C)C", "note": "[glycan 5, LacdiNAc-LacNAc-LacNAc]", "values": [{"measurement": "IC50", "setting": "human galectin-3 (Gal-3) [3]", "value": "6.2 ± 0.02", "unit": "µM"}]}
{"compound": "CC(=O)N[C@@H]1[C@@H](O)[C@H](O[C@@H]2O[C@H](CO)[C@H](O)[C@H](O[C@@H]3O[C@H](CO)[C@@H](O[C@@H]4O[C@H](CO)[C@H](O)[C@H](O[C@@H]5O[C@H](CO)[C@@H](O[C@@H]6O[C@H](CO)[C@H](O)[C@H](O)[C@H]6O)[C@H](O)[C@H]5NC(C)=O)[C@H]4O)[C@H](O)[C@H]3NC(C)=O)[C@H]2O)[C@@H](CO)O[C@H]1NC(=S)NCCNC(=O)OC(C)(C)C", "note": "[glycan 6, LacNAc-LacNAc-LacNAc]", "values": [{"measurement": "IC50", "setting": "human galectin-3 (Gal-3) [3]", "value": "20.1 ± 0.1", "unit": "µM"}]}
{"compound": "CC(=O)N[C@@H]1[C@@H](O)[C@H](O[C@@H]2O[C@H](CO)[C@H](O)[C@H](O[C@@H]3O[C@H](CO)[C@@H](O[C@@H]4O[C@H](CO)[C@H](O)[C@H](O[C@@H]5O[C@H](CO)[C@@H](O)[C@H](O[C@@H]6O[C@H](CO)[C@H](O)[C@H](O)[C@H]6O)[C@H]5NC(C)=O)[C@H]4O)[C@H](O)[C@H]3NC(C)=O)[C@H]2O)[C@@H](CO)O[C@H]1NC(=S)NCCNC(=O)OC(C)(C)C", "note": "[glycan 7, LacNAc type 1-LacNAc-LacNAc]", "values": [{"measurement": "IC50", "setting": "human galectin-3 (Gal-3) [3]", "value": "12.5 ± 0.1", "unit": "µM"}]}
{"compound": "CC(=O)N[C@@H]1[C@@H](O)[C@H](O[C@@H]2O[C@H](CO)[C@H](O)[C@H](O[C@@H]3O[C@H](CO)[C@@H](O[C@@H]4O[C@H](CO)[C@H](O)[C@H](O[C@@H]5O[C@H](CO)[C@@H](O[C@@H]6O[C@H](CO)[C@H](O)[C@H](O[C@H]7O[C@H](CO)[C@H](O)[C@H](O)[C@H]7O)[C@H]6O)[C@H](O)[C@H]5NC(C)=O)[C@H]4O)[C@H](O)[C@H]3NC(C)=O)[C@H]2O)[C@@H](CO)O[C@H]1NC(=S)NCCNC(=O)OC(C)(C)C", "note": "[glycan 8, Galili-LacNAc-LacNAc]", "values": [{"measurement": "IC50", "setting": "human galectin-3 (Gal-3) [3]", "value": "8.4 ± 0.1", "unit": "µM"}]}
{"compound": "Asialofetuin [ASF]", "values": [{"measurement": "Kd", "setting": "human galectin-3 (Gal-3) [4]; His6-tag Gal-3, read-out: Kd app, direct ELISA", "value": "5 ± 1", "unit": "µM"}, {"measurement": "ka", "setting": "Gal-3-AVI [5]; [7]", "value": "(4.8 ± 1.9) × 10^4 M^−1·s^−1"}, {"measurement": "kd", "setting": "Gal-3-AVI [5]; [7]", "value": "(4.0 ± 1.7) × 10^−4 s^−1"}, {"measurement": "Kd", "setting": "Gal-3-AVI [6]", "value": "4.8 ± 0.2", "unit": "µM"}]}
{"compound": "bovine serum albumin [BSA]", "values": [{"measurement": "binding of Gal-3 in direct ELISA", "setting": "human galectin-3 (Gal-3) [4]; negative control, immobilized", "value": "no binding"}, {"measurement": "SPR response / binding to immobilized Gal-3-AVI", "setting": "Gal-3-AVI [5]; nanomolar concentrations", "value": "no binding"}]}
